From patent US8735140B2, “Preservation and composition of bioprocess algae for production of lipids, seedstock, and feed” (Kuehnle AgroSystems, Inc., priority 2008, dated 2014)

Tested on: algae strains KAS503, KAS633 and KAS635
Test: Sorbitol treatment prior to alginate embedding, cell recovery after preservation
Format: cell-based
Description: In one specific embodiment, cells are treated with trehalose solution at various concentrations and left overnight. Cells are centrifuged the next day to remove the trehalose solution, and then re-suspended in sterile 0.5M D-sorbitol (Fisher Scientific […]) dissolved in salt or fresh-water medium as required by specific algae species. Cells are left to stand for 2 hours with mild agitation. After 2 hours, cells are centrifuged again to remove the 0.5M sorbitol solution and re-suspended in fresh or salt-water medium. Cells are counted after the re-suspension. Cell viability is determined by comparing the cell growth in control set with the experimental set. Specifically, cell counts are performed on all samples. The averaged density value (in cells per ml) for all the cultures after treatment is defined as “rejuvenation cell count.” In some samples, the percent recovery of cells immediately after storage is also determined. The formulae are illustrated as follows: Growth=(rejuvenation cell count)/(initial cell count) Cell recovery after storage=(cell density after storage)/(initial cell density), with controls set at 100% cell recovery. Viability after storage and rejuvenation in nutrient medium=(Growth of treatment)/(Growth of control)×100%, with controls set at 100% viability

OC[C@@H](O)[C@@H](O)[C@H](O)[C@@H](O)CO [sorbitol, D-sorbitol]
Cell recovery after preservation: increases cell recovery
